Patent US11116774B2, “Modulators of toll-like receptors for the treatment of HIV” (Gilead Sciences, Inc., priority 2014, dated 2021)
Where “and” joins values, the source holds several entries; their conditions need not be identical. Identical values can stand only once. Like-named read-outs stand apart in the source and are kept apart here.

Tests used:
[1] = test system: HIV-1 expression in PBMC cultures from HIV-1 infected donors on cART; assay: Induced HIV-1 expression in PBMC cultures from HIV-1 infected donors on cART (Example 208); type: cell-based, human; conditions: for fold induction at 0.01 µM / fold induction at 0.1 µM / fold induction at 0.156 µM / fold induction at 1 µM / fold induction at 2.5 µM / fold induction at 10 µM: Human immunodeficiency virus 1, PBMC; for fold induction at 0.01 µM: read-out: Fold HIV-1 Induction, Geometric Mean, 0.01 μM; for fold induction at 0.01 µM / fold induction at 0.156 µM / fold induction at 2.5 µM: donors 152-155; for fold induction at 0.1 µM: read-out: Fold HIV-1 Induction, Geometric Mean, 0.1 μM; for fold induction at 0.1 µM / fold induction at 1 µM: donors 122, 124-128; for fold induction at 0.156 µM: read-out: Fold HIV-1 Induction, Geometric Mean, 0.156 μM; for fold induction at 1 µM: read-out: Fold HIV-1 Induction, Geometric Mean, 1 μM; for fold induction at 2.5 µM: read-out: Fold HIV-1 Induction, Geometric Mean, 2.5 μM; for fold induction at 10 µM: read-out: Fold HIV-1 Induction, Geometric Mean, 10 μM, donors 124-127; for patients whose cultures showed two-fold or higher activation over the DMSO control: 4 to 5 days, with elvitegravir and efavirenz 100 nM each
Procedure: Isolated PBMCs were treated with various concentrations (0.1, 1, and 10 μM) of the TLR7 modulating compounds (compounds of Example 4 and Example 49) or dimethyl sulfoxide (DMSO) treated (vehicle control) for 4 to 5 days. The cultures were maintained in the presence of antivirals (elvitegravir and efavirenz at 100 nM each) to prevent viral spread and amplification in order to measure initial virus production (latency reversal) created by the TLR7 modulating compounds. At the end of the incubation period cell-free culture supernatants were harvested and HIV-1 RNA levels were quantified by the COBAS® AmpliPrep/COBAS® TaqMan HIV-1 Test, v2.0 (Roche).
Using the method described above in Example 208, HIV-1 expression in PBMC cultures derived from four additional HIV-1 infected donors on cART were tested in the presence of the compounds of Examples 4, 29, 120, 121, 122, 123, 124, resiquimod, and imiquimod.

[2] = test system: peripheral CD4 lymphocytes (CD3+CD4+CD8−); assay: Peripheral lymphocyte activation, CD69 by flow cytometry: CD4 lymphocytes (Example 206); type: in vivo, rhesus macaque
Text: (§1) During the course of treatment with the compound of Example 4 as described in Example 204, peripheral lymphocyte activation was monitored in the groups dosed with the compound of Example 4 or the dosing vehicle of Example 201 (placebo), by measuring the expression of the early activation marker CD69 on various lymphocyte subsets by flow cytometry methodology. This methodology was used to quantify the percentage of immune cell subsets expressing the early activation marker. Standard data acquisition techniques were employed on a flow cytometer and by the use of antibodies conjugated to fluorescent molecules where the antibodies recognize rhesus macaque cell surface proteins on various immune cell subsets. In animals dosed with the compound of Example 4, whole blood samples were collected for each dose at various time points both at pre- and post-administration of compound. Total PBMCs were stained in the whole blood samples using antibodies that were chosen to be reactive to rhesus CD3, CD4, CD8, NKG2A, CD16 and CD56, each conjugated to different fluorescent probes to delineate CD3+CD4+CD8− lymphocytes, CD3+CD4−CD8+ lymphocytes and CD3-CD8+ NKG2A+CD16+ CD56+ NK cells. The flow cytometry data presented herein are from animals treated with the compound of Example 4.

[3] = test system: peripheral NK cells (CD3-CD8+ NKG2A+CD16+CD56+); assay: Peripheral lymphocyte activation, CD69 by flow cytometry: NK cells (Example 206); type: in vivo, rhesus macaque
Text: as §1

[4] = test system: CD3+CD8+ lymphocytes in PBMC cultures from healthy and HIV-1 infected donors; assay: In vitro lymphocyte subset activation in PBMC cultures, CD69 on CD8+ lymphocytes (Example 207); type: cell-based, human; conditions: 24 hours; for CD69 Expression on CD3+CD8+ Lymphocytes, Mean Maximum Expression Background Subtracted: mean of donors 120-123; for CD69 Expression on CD3+CD8+ Lymphocytes, Maximum Expression (Actual %) / CD69 Expression on CD3+CD8+ Lymphocytes, Maximum Expression Background Subtracted: per donor, PBMC cultures
Procedure: (§2) Total PBMC cultures were treated with various concentrations of the identified TLR7 modulating compounds (Compounds of Example 4 and Example 49) for 24 hours. At the end of the incubation period, total PBMC were harvested and stained with antibodies conjugated to specific fluorophores to delineate human CD4 lymphocytes (CD3+CD4+CD8−) or CD8 lymphocytes (CD3+CD8+CD4-) and co-expressing the early activation marker CD69. Cells were analyzed by flow cytometry and data collected on an LSR FortessaX20 instrument (BD Biosciences).

[5] = test system: CD3+CD4+ lymphocytes in PBMC cultures from HIV-1 infected donors; assay: In vitro lymphocyte subset activation in PBMC cultures, CD69 on CD4+ lymphocytes (Example 207); type: cell-based, human; conditions: 24 hours; for CD69 Expression on CD3+CD4+ Lymphocytes, Mean Maximum Expression Background Subtracted: mean of donors 120-123; for CD69 Expression on CD3+CD4+ Lymphocytes, Maximum Expression (Actual %) / CD69 Expression on CD3+CD4+ Lymphocytes, Maximum Expression Background Subtracted: per donor, PBMC from HIV-1 infected donors
Procedure: as §2

HIV-1BaL = assay: Antiviral activity on in vitro HIV-1 infected PBMC cultures, Gag p24 ELISA (Example 209); type: cell-based; conditions: Human immunodeficiency virus 1, 144 h, PHA-stimulated human PBMC infected with HIV-1BaL, six days with IL-2, Gag p24
Procedure: Antiretroviral activity was assessed by testing the TLR7 modulating compounds (Compounds of Example 4 and Example 49) in total human PBMC cultures that were first treated with mitogen (phytohemogglutinin A) for two days prior to infection with HIV-1BaL. Infected cells were cultured in the presence of interleukin-2 and various concentrations of the TLR7 modulating compounds or the nucleoside analog HIV-1 reverse transcriptase inhibitor azidothymidine (AZT, positive control) for six days. At the end of the incubation period, cell-free culture supernatants were harvested and antiviral activity determined by measuring production of HIV-1 Gag p24 by commercially available ELISA kits.

[6] = test system: HIV in PBMCs from HIV-infected donors; human Interferon α/β receptor chain 2 blocked; assay: HIV activation with and without IFNα/β receptor block (Example 212); type: cell-based; conditions: Example 49 10 nM to 10 uM with anti-IFNα/β receptor chain 2 mAb MMHAR-2 at 1:500; day 4; 4 donors; p<0.05
Procedure: PBMCs from HIV-infected donors on suppressive cART were isolated, as before, and treated with the compound of Example 49 (GS-9620) at the doses indicated (10 nM to 10 uM) in the presence or absence of a mouse monoclonal antibody (clone MMHAR-2) against the human Interferon α/β receptor chain 2 (PBL Assay Science, Piscataway, N.J., Cat #21385-1) used at 1:500 dilution. At day 4 after treatment, cell-free culture supernatant was collected and HIV viral RNA was quantitated using the AmliPrep/COBAS® TaqMan® assay. Fold HIV activation in PBMCs from two HIV-infected donors treated with the compound of Example 49 alone and in combination with the anti-IFNα/β mAB (IFNAR block) is depicted in FIG. 8.

[7] = at least 8 independent donors, read-out: Range EC50
[8] = mean ± SD from at least 8 independent donors, read-out: Mean EC50

Compound | Donors with ≥2-fold HIV-1 Induction ([1]; 0.01 μM, Tables 7-11) | Donors with ≥2-fold HIV-1 Induction ([1]; 0.1 μM, Table 6) | Donors with ≥2-fold HIV-1 Induction ([1]; 0.156 μM, Tables 7-11) | Donors with ≥2-fold HIV-1 Induction ([1]; 1 μM, Table 6) | Donors with ≥2-fold HIV-1 Induction ([1]; 2.5 μM, Tables 7-11) | Donors with ≥2-fold HIV-1 Induction ([1]; 10 μM, Table 6) | fold induction at 0.01 µM ([1]; Tables 7-11) | fold induction at 0.1 µM ([1]; Table 6) | fold induction at 0.156 µM ([1]; Tables 7-11) | fold induction at 1 µM ([1]; Table 6) | fold induction at 2.5 µM ([1]; Tables 7-11) | fold induction at 10 µM ([1]; Table 6) | CD69 Expression on CD3+CD8+ Lymphocytes, Mean Maximum Expression Background Subtracted [4] [%] | CD69 Expression on CD3+CD8+ Lymphocytes, Maximum Expression (Actual %) [4] | CD69 Expression on CD3+CD8+ Lymphocytes, Maximum Expression Background Subtracted [4] | CD69 Expression on CD3+CD4+ Lymphocytes, Mean Maximum Expression Background Subtracted [5] [%] | CD69 Expression on CD3+CD4+ Lymphocytes, Maximum Expression (Actual %) [5] | CD69 Expression on CD3+CD4+ Lymphocytes, Maximum Expression Background Subtracted [5] | EC50 (HIV-1BaL; [7]) [nM] | EC50 (HIV-1BaL; [8]) [nM] | other results
CCCCOc1nc(N)c2c(n1)N(Cc1ccc(CN3CCCC3)cc1)CC(=O)N2 [Example 4] | 4 of 4 | 4 of 6 | 4 of 4 | 3 of 6 | 4 of 4 | 3 of 4 | 4.3 | 2 | 5.3 | 1.6 | 4 | 3.9 | 32 | 60% and 44% and 35% and 32% | 36% and 30% (2×) and 33% | 22 | 57% and 41% and 26% and 24% | 19% and 21% and 25% and 24% | 0.8 to 81 | 33 ± 35 | mean maximum percent change in CD69 expression on CD4 lymphocytes ([2]; all subsequent doses): 1.7%; mean maximum percent change in CD69 expression on CD4 lymphocytes ([2]; dose 0.1 mg/kg, any time point (rise 24 to 72 hours post-dose), pre-dose range 0.5-1.7%): 1.1%; mean maximum percent change in CD69 expression on CD4 lymphocytes ([2]; dose 0.2 mg/kg, pre-dose range 0.5-2%): 1.5%; mean maximum percent change in CD69 expression on CD4 lymphocytes ([2]; first dose of 0.3 mg/kg, pre-dose range 0.6-2.5%): 2.3%; mean maximum percent change in CD69 expression on NK cells ([3]; dose 0.1 mg/kg, any time point (rise by 24 to 72 hours post-dose), pre-dose range 89-95%): 6.5%; mean maximum percent change in CD69 expression on NK cells ([3]; dose 0.2 mg/kg, pre-dose range 83-95%): 9.5%; mean maximum percent change in CD69 expression on NK cells ([3]; first dose of 0.3 mg/kg, pre-dose range 84-95%): 8.3%; mean maximum percent change in CD69 expression on NK cells ([3]; second dose of 0.3 mg/kg, pre-dose range 82-97%): 8.7%
CCCCOc1nc(N)c2c(n1)N(Cc1cccc(CN3CCCC3)c1)CC(=O)N2 [Example 49] | 2 of 4 | 3 of 6 | 4 of 4 | 4 of 6 | 4 of 4 | 1 of 4 | 4 | 2.3 | 6.7 | 2.8 | 9.4 | 1.4 | 31 | 55% and 43% and 35% and 32% | 31% and 29% and 33% and 30% | 22 | 59% and 39% and 24% and 25% | 21% and 20% and 23% and 24% | 4 to 691 | 170 ± 240 | patients whose cultures showed two-fold or higher activation over the DMSO control ([1]; 0.1 μM): 4 of 6; patients whose cultures showed two-fold or higher activation over the DMSO control ([1]; 1 μM): 3 of 6; patients whose cultures showed two-fold or higher activation over the DMSO control ([1]; 10 μM): 1 of 4; mean maximal reduction of fold HIV activation by IFNAR block [6]: 85%
